Experimental findings from paper PMC6515479, “An Investigation on Glucuronidation Metabolite Identification, Isozyme Contribution, and Species Differences of GL-V9 In Vitro and In Vivo” (Molecules, 2019) are described below.

What all share (assay type): in vitro ADME
Data set [1] concerns mouse liver microsomes (MiceLMs). The data set is described as follows: Enzyme kinetics of GL-V9 glucuronidation in mouse liver microsomes (MiceLMs). Particulars: formation of 5-O-glucuronide GL-V9, protein 0.2 mg/mL, mean ± SD, n = 3. Here is the method:
(§1) The composition of the incubation system (200 μL) contained liver microsomes of different species (0.1 mg protein/mL), 5 mM saccharolactone (D-saccharic acid 1,4-lactone monohydrate), 10 mM MgCl2, alamethicin (50 μg/mg protein), Tris-HCl buffer (50 mM, pH 7.4) and GL-V9 (1 μM). After 5 min of preincubation at 37 °C, UDPGA (5 mM) was added to initiate the phase II reaction. Control incubation samples were performed without UDPGA or without substrates (GL-V9). The reaction was terminated by addition of ice-cold methanol (three volumes) after incubation for 1 h at 37 °C. Samples were vortexed, centrifuged at 21,500× g for 10 min and then stored at 4 °C until HPLC-UV-TripleTOF analysis. To confirm that these metabolites are conjugates resulting from glucuronidation reaction, enzymatic hydrolysis of samples was processed. β-glucuronidase (100 KU, Sigma) was added and the hydrolysis was performed overnight at 37 °C. The control samples were carried out without β-glucuronidase under the same condition.
(§2) Enzyme kinetics experiments were carried out in triplicate among five different species, including monkey, beagle dog, rat, mouse, and human. The reaction system and operations are as same as described in Section 4.3. The solutions of GL-V9 were selected over a range of concentrations (0.05, 0.2, 0.5, 1, 2, 5, 10, 20 μM). […]

Assay in data set [2]: as above
Particulars: mouse, liver microsomes, pH 7.4, formation of 5-O-glucuronide GL-V9, protein 0.2 mg/mL, mean ± SD, n = 3. The protocol:
as §1, §2

Data set [3] deals with T1, rUGT2B7 (Homo sapiens, UniProt P16662).
T1 construct: purchased Corning (Woburn, MA, USA)
T1 sequence (P16662 24-529): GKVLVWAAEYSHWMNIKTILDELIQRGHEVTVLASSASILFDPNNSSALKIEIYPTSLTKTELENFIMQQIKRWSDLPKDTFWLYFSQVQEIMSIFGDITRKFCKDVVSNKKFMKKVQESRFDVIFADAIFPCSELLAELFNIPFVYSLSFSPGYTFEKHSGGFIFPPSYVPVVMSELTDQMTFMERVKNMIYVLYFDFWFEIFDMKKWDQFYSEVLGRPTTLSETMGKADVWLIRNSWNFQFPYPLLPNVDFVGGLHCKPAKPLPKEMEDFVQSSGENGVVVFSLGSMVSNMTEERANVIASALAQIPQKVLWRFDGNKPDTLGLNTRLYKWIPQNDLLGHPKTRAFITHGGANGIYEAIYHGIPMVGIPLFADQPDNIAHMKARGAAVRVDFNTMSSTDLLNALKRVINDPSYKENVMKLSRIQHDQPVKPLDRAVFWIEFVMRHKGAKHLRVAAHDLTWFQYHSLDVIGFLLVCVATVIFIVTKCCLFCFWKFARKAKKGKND
The data set is described as follows: UGT phenotyping of GL-V9 glucuronidation, rUGT2B7. Particulars: GL-V9 0.5, 1, 5 μM, 37 °C, 1 h. Here is the method: as §1
(§3) Twelve human recombinant UGT isoforms (rUGT1A1, rUGT1A3, rUGT1A4, rUGT1A6, rUGT1A7, rUGT1A8, rUGT1A9, rUGT1A10, rUGT2B4, rUGT2B7, rUGT2B15, and rUGT2B17) were employed to identify the main UGT enzyme(s) responsible for glucuronidation of GL-V9 under mixture conditions as described in Section 4.3. […]

The target in data set [4] is T2, rUGT2B4 (Homo sapiens, UniProt P06133).
T2 construct: purchased Corning (Woburn, MA, USA)
T2 sequence (P06133 24-528): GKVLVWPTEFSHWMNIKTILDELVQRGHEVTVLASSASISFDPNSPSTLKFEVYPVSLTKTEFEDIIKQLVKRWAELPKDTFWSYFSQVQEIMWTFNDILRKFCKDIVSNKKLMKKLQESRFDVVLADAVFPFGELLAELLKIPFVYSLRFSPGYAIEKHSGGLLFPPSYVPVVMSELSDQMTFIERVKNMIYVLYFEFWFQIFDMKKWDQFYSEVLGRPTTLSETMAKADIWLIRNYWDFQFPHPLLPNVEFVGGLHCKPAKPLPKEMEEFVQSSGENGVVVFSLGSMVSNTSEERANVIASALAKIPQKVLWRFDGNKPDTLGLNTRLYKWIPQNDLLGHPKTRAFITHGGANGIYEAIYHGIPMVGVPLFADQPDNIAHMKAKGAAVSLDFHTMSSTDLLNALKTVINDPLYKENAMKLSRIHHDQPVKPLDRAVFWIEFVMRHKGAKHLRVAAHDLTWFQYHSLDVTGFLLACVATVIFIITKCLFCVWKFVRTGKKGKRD
The data set is described as follows: UGT phenotyping of GL-V9 glucuronidation, rUGT2B4. Particulars: GL-V9 0.5, 1, 5 μM, 37 °C, 1 h. Here is the method:
as §1, §3

For data set [5], the target named is T3, rUGT2B15 (Homo sapiens, UniProt P54855).
T3 construct: purchased Corning (Woburn, MA, USA)
T3 sequence (P54855 24-530): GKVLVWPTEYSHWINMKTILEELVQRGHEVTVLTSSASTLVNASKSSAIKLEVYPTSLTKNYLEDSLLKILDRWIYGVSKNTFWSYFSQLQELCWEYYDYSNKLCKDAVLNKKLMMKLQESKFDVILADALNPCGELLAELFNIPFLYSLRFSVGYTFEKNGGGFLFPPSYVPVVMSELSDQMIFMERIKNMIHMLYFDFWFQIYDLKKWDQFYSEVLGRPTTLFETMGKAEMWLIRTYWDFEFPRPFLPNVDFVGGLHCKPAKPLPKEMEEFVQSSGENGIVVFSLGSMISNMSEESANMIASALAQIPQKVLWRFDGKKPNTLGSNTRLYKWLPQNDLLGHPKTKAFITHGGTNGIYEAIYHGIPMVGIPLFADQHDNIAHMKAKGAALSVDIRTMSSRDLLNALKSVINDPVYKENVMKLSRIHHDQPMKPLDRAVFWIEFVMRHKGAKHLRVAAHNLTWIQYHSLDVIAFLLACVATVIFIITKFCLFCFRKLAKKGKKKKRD
The data set is described as follows: UGT phenotyping of GL-V9 glucuronidation, rUGT2B15. Particulars: GL-V9 0.5, 1, 5 μM, 37 °C, 1 h. Here is the method: as §1, §3

The term Vmax denotes the rate approached at saturating substrate. The Km is the concentration of substrate that gives half-maximal velocity. Take `COc1c(OCCCCN2CCCC2)cc(O)c2c(=O)cc(-c3ccccc3)oc12` [GL-V9]: the Vmax in data set [1] stood at 153.2 ± 10.44 pmol/min/mg. Besides, the Km at 1 h in data set [2] came out at 20.1 ± 1.04 µM. In addition, the “Catalytic activity in the production of 5-O-glucuronide GL-V9” value in data set [3], in data set [4] and in data set [5] was “did not show apparent catalytic activity” each time.
